{"source": "patent US8394785B2", "about": "“Methods for the treatment and amelioration of urticaria” (Jado Technologies GmbH, priority 2005, dated 2013)", "key": {"[1]": {"tested_on": "allergic volunteers with known type-1-sensitizations", "assay": "Prick test with histamine after topical pre-treatment, wheal size", "assay_type": "in vivo, human", "details": "n = 5; for histamine-prick wheal ± standard error: miltefosine pre-treatment (6% solution, topical, 2 h before); for histamine-prick % inhibition ± standard error (by miltefosine pre-treatment): versus placebo pre-treatment", "description": "To provide proof of concept that miltefosine inhibits IgE-dependent human mast cell stimulation and mediator release in vivo we performed a study on selected allergic volunteers with known type-1-sensitizations (n=5). The volunteers were subjected to standard prick testing with their known allergens on both forearms as well as with positive (histamine) and negative (saline) controls (Table 3). Using a double blind, placebo controlled approach, one forearm of each test person was pre-treated with topical miltefosine (6% solution). The contralateral side was subjected to a pre-treatment with a placebo solution (saline), both two hours prior to the prick test. Subsequently, developing skin symptoms were measured with high-quality standardized methods, i.e. macroscopic standard prick test-evaluation (Heinzerling et al 2005), volumetric imaging, thermography, and digital time lapse photography (DTLP). Volunteers known to suffer from permanent severe diseases, especially those affecting the immune system, were excluded from the study. None of the volunteers took any oral […] or leukotriene antagonists within 7 days prior to the beginning of the study. Moreover, none of them took any oral or depot corticosteroids or other immunosuppressive drugs within 21 days before the testing. The course of developing lesions (wheal and erythema size) was assessed macroscopically by measuring vertical and perpendicular diameter of wheal and erythema size. Subsequently, the sum of both diameters was divided by two. In addition, volumetric and thermographic imaging as well as DTLP was performed before and at defined time points after prick testing. To assess the course of developing prick test lesions, wheal size was assessed macroscopically by measuring the diameters at distinct time points after prick testing."}, "[2]": {"tested_on": "C57 mouse mast cell line transfected with the alpha chain of the human high affinity IgE receptor", "assay": "Histamine release assay, anti-human-IgE induced, C57 cells", "assay_type": "cell-based", "details": "anti-human-IgE stimulation; 60 min pre-incubation", "procedure": "Stock solution of miltefosine (5 mM) was prepared in DMSO and stored at −20° C. For preparation of the working concentration (2 mM), the stock solution was diluted with PAG-CM (PAG-CM=PIPES Albumin Glucose with Calcium und Magnesium). All other dilutions of miltefosine were prepared with 40% DMSO in PAG-CM buffer. The quantification of histamine levels was achieved using an automated histamine-analyser system (Firm Borgwelt Technik). The wavelength of the excitation was 355-360 nm and the emission wavelength of fluorescence measurement was 450-460 nm. The intensity of fluorescence was directly proportional to the concentration of histamine in the samples. The amount of released histamine was calculated according to the following formula: net histamine release=(release−blank)×(100/complete). “Release”, in this context, was defined as the supernatant of stimulated cells, e.g. by anti-IgE, whereas supernatants of non stimulated cells, i.e. spontaneous release, was termed “blank”. “Complete” stands for the total histamine content of mast cells (after lysing with perchloric acid). The histamine release assays were performed in the PAG-CM buffer system. The numbers of mast cells or basophils in each sample used for histamine release assays was approximately 1×10^4 cells. For stimulation, cells were exposed to anti-IgE, Substance P, Ca-ionophore, or C5a. […]"}}, "data": [{"molecule": "CCCCCCCCCCCCCCCCOP(=O)([O-])OCC[N+](C)(C)C", "note": "[Compound 3, 1-hexadecylphosphoryl-choline]", "values": [{"measurement": "histamine-prick wheal ± standard error", "setting": "[1]; 15 minutes after prick testing", "result": "4.40 ± 0.86", "unit": "mm"}, {"measurement": "histamine-prick wheal ± standard error", "setting": "[1]; 20 minutes after prick testing", "result": "4.30 ± 1.08", "unit": "mm"}, {"measurement": "histamine-prick wheal ± standard error", "setting": "[1]; 30 minutes after prick testing", "result": "3.40 ± 1.43", "unit": "mm"}, {"measurement": "histamine-prick % inhibition ± standard error (by miltefosine pre-treatment)", "setting": "[1]; 15 minutes after prick testing", "result": "22.4 ± 14.2", "unit": "%"}, {"measurement": "histamine-prick % inhibition ± standard error (by miltefosine pre-treatment)", "setting": "[1]; 20 minutes after prick testing", "result": "19.2 ± 23.1", "unit": "%"}, {"measurement": "histamine-prick % inhibition ± standard error (by miltefosine pre-treatment)", "setting": "[1]; 30 minutes after prick testing", "result": "−7.9 ± 23.2", "unit": "%"}, {"measurement": "maximal inhibition of histamine release", "setting": "[2]", "result": 40, "unit": "%"}]}]}
